Measurements: ChEMBL document CHEMBL3886157, “Heterocyclic carboxamides as modulators of kinase activity” (2015)

Experiments:
[1] = target: Ribosomal protein S6 kinase beta-1 (Homo sapiens, UniProt P23443, T412E); assay: P70S6K Enzyme Assay: P70S6K inhibitor compounds are diluted and plated in 96 well plates. A reaction mixture including the following components is then added to the compound plate to initiate the enzyme reaction; P70S6K (3 nM, T412E mutant, Millipore) is mixed with 24 uM ATP in an assay buffer containing 100 mM Hepes (pH 7.5), 5 mM MgCl2, 1 mM DTT, 0.015% Brij and 1 uM of the substrate peptide FITC-AHA-[…]-OH (derived from the S6 ribosomal protein sequence, FITC=fluorescein isothiocyanate, AHA=6-aminohexanoic acid). The reaction is incubated for 90 min at 25° C., before the addition of 10 mM EDTA to stop the reaction. The proportion of substrate and product (phosphorylated) peptide is analysed on a Caliper Life Sciences Lab Chip 3000, using a pressure of -1.4 psi, and upstream and downstream voltages of -3000 and -700 respectively. Product peaks are resolved before substrate peaks on the resulting chromatograms.
Sequence of Ribosomal protein S6 kinase beta-1 (P23443 whole entry T412E): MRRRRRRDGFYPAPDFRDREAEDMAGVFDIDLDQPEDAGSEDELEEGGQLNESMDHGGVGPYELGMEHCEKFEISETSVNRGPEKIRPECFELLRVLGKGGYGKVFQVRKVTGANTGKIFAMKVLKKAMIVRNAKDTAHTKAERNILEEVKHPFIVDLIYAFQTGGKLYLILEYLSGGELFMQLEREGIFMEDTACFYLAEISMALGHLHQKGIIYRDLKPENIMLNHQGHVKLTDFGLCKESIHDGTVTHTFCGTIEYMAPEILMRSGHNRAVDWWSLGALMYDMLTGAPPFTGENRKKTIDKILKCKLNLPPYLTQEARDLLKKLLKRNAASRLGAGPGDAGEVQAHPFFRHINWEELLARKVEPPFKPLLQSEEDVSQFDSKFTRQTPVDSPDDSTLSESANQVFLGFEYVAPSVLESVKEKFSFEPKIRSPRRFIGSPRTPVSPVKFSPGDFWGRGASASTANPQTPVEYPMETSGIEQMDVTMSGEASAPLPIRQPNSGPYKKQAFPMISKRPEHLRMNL

[2] = target: RAC-alpha serine/threonine-protein kinase (Homo sapiens, UniProt P31749); assay: AKT Enzyme Assay: A TTP Mosquito liquid handling instrument is used to place […] of the appropriate concentration of inhibitor in 100% DMSO (for a dose response curve calculation) into each well of a 384-well plate. To this reaction components are added to a final volume of 12.50 0.1 ng/uL His-AKT (Full Length), (Invitrogen, Part # P2999, Lot #641228C). 160 uM ATP (Fluka, 02055) 1 mM DTT (Sigma, D0632) 1 mM MgCl2 (Sigma, M1028) 1 uM substrate peptide (sequence FITC-AHA-[…]-NH2), synthesized by Tufts Peptide Synthesis service. 100 mM HEPES pH 7.5 (Calbiochem, 391338) 0.015% Brij-35 (Sigma, B4184)The reaction is incubated for 90 min at 25° C, and then stopped by the addition of 70 ul of Stop buffer (100 mM HEPES pH 7.5, 0.015% Brij-35, 10 mM EDTA (Sigma, E7889)).The plate is read on a Caliper LC 3000 in an Off-Chip mobility shift assay format, using the following parameters for a 12-sipper chip: screening pressure -2.3 psi, upstream voltage -500, and downstream voltage -3000.
Sequence of RAC-alpha serine/threonine-protein kinase (P31749 whole entry): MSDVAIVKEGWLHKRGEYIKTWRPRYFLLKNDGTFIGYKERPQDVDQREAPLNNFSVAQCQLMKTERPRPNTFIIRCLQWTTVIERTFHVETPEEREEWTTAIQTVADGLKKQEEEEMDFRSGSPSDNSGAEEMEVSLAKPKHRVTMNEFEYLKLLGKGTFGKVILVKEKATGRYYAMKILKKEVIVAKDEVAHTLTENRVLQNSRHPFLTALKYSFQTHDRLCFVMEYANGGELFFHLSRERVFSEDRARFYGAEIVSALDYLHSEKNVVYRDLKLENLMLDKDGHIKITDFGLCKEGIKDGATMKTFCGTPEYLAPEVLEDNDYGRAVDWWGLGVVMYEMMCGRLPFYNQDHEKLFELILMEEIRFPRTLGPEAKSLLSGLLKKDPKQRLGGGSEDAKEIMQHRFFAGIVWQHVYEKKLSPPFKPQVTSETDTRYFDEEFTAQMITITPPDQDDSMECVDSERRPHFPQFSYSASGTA

SMILES	IC50 [1]	IC50 [2]
CNC[C@@H](Nc1ccc(C(N)=O)c2ncncc12)c1cccc(F)c1	> 1000 nM	
NC(=O)c1ccc(NCC(c2ccccc2)N2CCNCC2)c2cncnc12 (racemic)	170 nM	
NC(=O)c1ccc(N2CCC(N)(C(=O)Nc3ccc(F)c(C(F)(F)F)c3)C2)c2cncnc12 (racemic)	270 nM	
NC(=O)c1ccc(NC(=O)C2CNC[C@@H]2c2cccc(F)c2)c2cccnc12 (some centres not stated)	> 1000 nM	
NC(=O)c1ccc(NCc2ccccc2)c2cncnc12	690 nM	57000 nM

The remaining lines, values ahead:

IC50 [1]	IC50 [2]	SMILES
490 nM		NC(=O)c1ccc(N2CCC(NCc3ccc(Cl)c(Cl)c3)C2)c2cncnc12 (racemic)
> 100000 nM	> 100000 nM	NC(=O)c1ccc(N2CCN(c3ccc(Cl)c(Cl)c3)CC2)c2cncnc12
98 nM	> 100000 nM	NC(=O)c1ccc(NCCc2ccc(Cl)c(Cl)c2)c2cncnc12
570 nM		CN(Cc1ccc(Cl)c(Cl)c1)C1CCN(c2ccc(C(N)=O)c3ncncc23)C1 (racemic)
